Assays:
Assay type in all cases: functional, cell-free
[1] = Antioxidant activity against Cu2+-induced lipid peroxidation in human plasma LDL assessed as maximal compound concentration at 5 umol/L preincubated for 1 hr before Cu2+ challenge measured after 150 mins relative to compound present at 0 min
[2] = Antioxidant activity against Cu2+-induced lipid peroxidation in human plasma LDL assessed as lysophosphatidylcholine formation at 5 umol/L preincubated for 1 hr before Cu2+ challenge measured after 270 mins
[3] = Antioxidant activity against Cu2+-induced lipid peroxidation in human plasma LDL assessed as vitamin E consumption at 5 umol/L preincubated for 1 hr before Cu2+ challenge measured after 180 mins
[4] = Antioxidant activity against Cu2+-induced lipid peroxidation in human plasma LDL assessed as lysophosphatidylcholine formation at 10 umol/L preincubated for 1 hr before Cu2+ challenge measured after 180 mins
[5] = Antioxidant activity against Cu2+-induced lipid peroxidation in human plasma LDL assessed as conjugated diene formation at 5 umol/L preincubated for 1 hr before Cu2+ challenge measured after 270 mins
[6] = Antioxidant activity against Cu2+-induced lipid peroxidation in human plasma LDL assessed as lysophosphatidylcholine formation at 10 umol/L preincubated for 1 hr before Cu2+ challenge measured after 270 mins
[7] = Antioxidant activity against Cu2+-induced lipid peroxidation in human plasma LDL assessed as conjugated diene formation at 5 umol/L preincubated for 1 hr before Cu2+ challenge measured after 360 mins
[8] = Antioxidant activity against Cu2+-induced lipid peroxidation in human plasma LDL assessed as vitamin E consumption at 20 umol/L preincubated for 1 hr before Cu2+ challenge measured after 150 mins
[9] = Antioxidant activity against Cu2+-induced lipid peroxidation in human plasma LDL assessed as conjugated diene formation at 20 umol/L preincubated for 1 hr before Cu2+ challenge measured after 180 mins
[10] = Antioxidant activity against Cu2+-induced lipid peroxidation in human plasma LDL assessed as vitamin E consumption at 20 umol/L preincubated for 1 hr before Cu2+ challenge measured after 15 mins
[11] = Antioxidant activity against Cu2+-induced lipid peroxidation in human plasma LDL assessed as lysophosphatidylcholine formation at 5 umol/L preincubated for 1 hr before Cu2+ challenge measured after 210 mins
[12] = Antioxidant activity against Cu2+-induced lipid peroxidation in human plasma LDL assessed as vitamin E consumption at 5 umol/L preincubated for 1 hr before Cu2+ challenge measured after 15 mins
[13] = Antioxidant activity against Cu2+-induced lipid peroxidation in human plasma LDL assessed as conjugated diene formation at 20 umol/L preincubated for 1 hr before Cu2+ challenge measured after 360 mins
[14] = Antioxidant activity against Cu2+-induced lipid peroxidation in human plasma LDL assessed as conjugated diene formation at 20 umol/L preincubated for 1 hr before Cu2+ challenge measured after 90 mins
[15] = Antioxidant activity against Cu2+-induced lipid peroxidation in human plasma LDL assessed as maximal compound concentration at 5 umol/L preincubated for 1 hr before Cu2+ challenge measured after 210 mins relative to compound present at 0 min
[16] = Antioxidant activity against Cu2+-induced lipid peroxidation in human plasma LDL assessed as maximal compound concentration at 10 umol/L preincubated for 1 hr before Cu2+ challenge measured after 45 mins relative to compound present at 0 min
[17] = Antioxidant activity against Cu2+-induced lipid peroxidation in human plasma LDL assessed as maximal compound concentration at 10 umol/L preincubated for 1 hr before Cu2+ challenge measured after 210 mins relative to compound present at 0 min
[18] = Antioxidant activity against Cu2+-induced lipid peroxidation in human plasma LDL assessed as lysophosphatidylcholine formation at 5 umol/L preincubated for 1 hr before Cu2+ challenge measured after 180 mins
[19] = Antioxidant activity against Cu2+-induced lipid peroxidation in human plasma LDL assessed as maximal compound concentration at 5 umol/L preincubated for 1 hr before Cu2+ challenge measured after 90 mins relative to compound present at 0 min
[20] = Antioxidant activity against Cu2+-induced lipid peroxidation in human plasma LDL assessed as conjugated diene formation at 10 umol/L preincubated for 1 hr before Cu2+ challenge measured after 150 mins
[21] = Antioxidant activity against Cu2+-induced lipid peroxidation in human plasma LDL assessed as vitamin E consumption at 10 umol/L preincubated for 1 hr before Cu2+ challenge measured after 270 mins
[22] = Antioxidant activity against Cu2+-induced lipid peroxidation in human plasma LDL assessed as maximal compound concentration at 10 umol/L preincubated for 1 hr before Cu2+ challenge measured after 15 mins relative to compound present at 0 min
[23] = Antioxidant activity against Cu2+-induced lipid peroxidation in human plasma LDL assessed as conjugated diene formation at 10 umol/L preincubated for 1 hr before Cu2+ challenge measured after 180 mins
[24] = Antioxidant activity against Cu2+-induced lipid peroxidation in human plasma LDL assessed as lysophosphatidylcholine formation at 10 umol/L preincubated for 1 hr before Cu2+ challenge measured after 150 mins
[25] = Antioxidant activity against Cu2+-induced lipid peroxidation in human plasma LDL assessed as lysophosphatidylcholine formation at 20 umol/L preincubated for 1 hr before Cu2+ challenge measured after 180 mins
[26] = Antioxidant activity against Cu2+-induced lipid peroxidation in human plasma LDL assessed as vitamin E consumption at 20 umol/L preincubated for 1 hr before Cu2+ challenge measured after 210 mins
[27] = Antioxidant activity against Cu2+-induced lipid peroxidation in human plasma LDL assessed as maximal compound concentration at 20 umol/L preincubated for 1 hr before Cu2+ challenge measured after 60 mins relative to compound present at 0 min
[28] = Antioxidant activity against Cu2+-induced lipid peroxidation in human plasma LDL assessed as conjugated diene formation at 5 umol/L preincubated for 1 hr before Cu2+ challenge measured after 150 mins
[29] = Antioxidant activity against Cu2+-induced lipid peroxidation in human plasma LDL assessed as vitamin E consumption at 20 umol/L preincubated for 1 hr before Cu2+ challenge measured after 120 mins
[30] = Antioxidant activity against Cu2+-induced lipid peroxidation in human plasma LDL assessed as lysophosphatidylcholine formation at 20 umol/L preincubated for 1 hr before Cu2+ challenge measured after 120 mins
[31] = Antioxidant activity against Cu2+-induced lipid peroxidation in human plasma LDL assessed as lysophosphatidylcholine formation at 20 umol/L preincubated for 1 hr before Cu2+ challenge measured after 150 mins
[32] = Antioxidant activity against Cu2+-induced lipid peroxidation in human plasma LDL assessed as conjugated diene formation preincubated for 1 hr before Cu2+ challenge
[33] = Antioxidant activity against Cu2+-induced lipid peroxidation in human plasma LDL assessed as lysophosphatidylcholine formation at 20 umol/L preincubated for 1 hr before Cu2+ challenge measured after 90 mins
[34] = Antioxidant activity against Cu2+-induced lipid peroxidation in human plasma LDL assessed as maximal compound concentration at 20 umol/L preincubated for 1 hr before Cu2+ challenge measured after 30 mins relative to compound present at 0 min

SMILES: CC(C)(Sc1cc(C(C)(C)C)c(O)c(C(C)(C)C)c1)Sc1cc(C(C)(C)C)c(O)c(C(C)(C)C)c1
- Activity [1]: 28.6%
- Activity [2]: 26.1%
- Activity [3]: 0%
- Activity [4]: 6.2%
- Activity [5]: 87.1%
- Activity [6]: 12.9%
- Activity [7]: 100%
- Activity [8]: 0%
- Activity [9]: 2.6%
- Activity [10]: 38.2%
- Activity [11]: 23.1%
- Activity [12]: 45%
- Activity [13]: 2.3%
- Activity [14]: 0.7%
- Activity [15]: 36.8%
- Activity [16]: 73%
- Activity [17]: 21.6%
- Activity [18]: 19.4%
- Activity [19]: 55.3%
- Activity [20]: 77.2%
- Activity [21]: 0%
- Activity [22]: 86.6%
- Activity [23]: 77.3%
- Activity [24]: 3%
- Activity [25]: 1.5%
- Activity [26]: 0%
- Activity [27]: 51.7%
- Activity [28]: 78.3%
- Activity [29]: 0%
- Activity [30]: 1%
- Activity [31]: 1.3%
- Activity [32]: Dose-dependent effect
- Activity [33]: 1.1%
- Activity [34]: 91.8%

— ChEMBL document CHEMBL1137802, “Specific antioxidant activity of caffeoyl derivatives and other natural phenolic compounds: LDL protection against oxidation and decrease in the proinflammatory lysophosphatidylcholine production” (J Nat Prod, 2001)
